Legend:
[1] = target: T1, porcine pancreatic elastase (PPE) (Sus scrofa, UniProt P00772); assay: Elastase inhibition assay with SANA substrate; assay type: biochemical; conditions: for %I @50 μM / mode of inhibition (Lineweaver–Burk plot) / IC50: PPE; for %I @50 μM: 50 µM compound, SANA substrate, mean ± SD, n = 3; for mode of inhibition (Lineweaver–Burk plot): SANA as substrate; for IC50: SANA substrate 1.6 mM, Tris-HCl pH 8.0; for Ki: binding with the free enzyme, secondary plot of Lineweaver–Burk slopes, SANA 0.5-1.5 mM, read-out: inhibition constant (Ki)
T1 construct: purchased Merck Sigma Aldrich (Milano, Italy)
T1 sequence (P00772 27-266): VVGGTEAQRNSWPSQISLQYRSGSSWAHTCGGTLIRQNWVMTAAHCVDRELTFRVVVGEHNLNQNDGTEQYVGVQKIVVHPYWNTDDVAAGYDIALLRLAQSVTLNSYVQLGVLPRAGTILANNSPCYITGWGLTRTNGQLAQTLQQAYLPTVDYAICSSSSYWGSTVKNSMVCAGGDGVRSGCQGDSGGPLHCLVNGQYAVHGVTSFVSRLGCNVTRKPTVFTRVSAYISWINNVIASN
Protocol: The inhibition mechanism was assessed using Lineweaver–Burk plot analysis.
Elastase inhibition was determined using the substrate N‐succ‐(Ala)3‐nitroanilide (SANA) as previously described.^[ [27] ^] The assay was performed in 0.1 M Tris‐HCl buffer (pH 8.0). PPE (3.3 µg mL^−1) was incubated with or without the compound for 20 min, and after incubation, the substrate (1.6 mM) was added. The release of p‐nitroaniline during cleavage of the substrate SANA by the enzyme activity was monitored at 410 nm. The control was performed with DMSO, while oleanolic acid was used as a positive control. […] The mode of inhibition on the enzyme was performed using the Lineweaver–Burk plot. Different concentrations of SANA (0.5, 0.75, 1.0, and 1.5 mM) were used for the assay. All reagents were purchased from “Merck Sigma Aldrich” (Milano, Italy).

[2] = Relative lipophilicity by reverse-phase TLC (RM); assay type: physicochemical; conditions: RP-TLC C18, acetone–water 2/1 v/v, 25 °C, RM = log[(1/RF) − 1]
Protocol: In addition, we assessed the relative lipophilicity of the investigated compounds using the reverse‐phase thin layer chromatography (RP‐TLC), following the procedure detailed in Experimental Section. Based on retention factor (R F), we obtained the corresponding R M values for the homogenous series of compounds 1–9. The applied methodology is described in detail in the Experimental Section.
The experimental determination of relative lipophilicity was carried out using reversed‐phase thin‐layer chromatography (20 × 20 cm plates coated with C18 silica RP18 F254, E. Merck, Darmstadt, Germany). A binary solvent system consisting of acetone–water (2/1, v/v) served as the mobile phase. Compounds 1–9 were prepared in methanol to obtain a concentration of 2.0 mg/mL; from these working solutions, a volume of 0.2 μL was spotted on the plate, which was dried at 105 °C for 1 h before use. The chromatograms were developed to a distance of 10 cm from the origin in ascending TLC chambers and developed at 25 °C. After development, compound spots were visualized under UV light at 254 nm. Each determination was performed as triplicate 3 by spotting the compounds on the plate in distinct position; therefore, each RF value resulted as a mean value obtained in triplicate.

[3] = target: T1, porcine pancreatic elastase (PPE); set-up: method as in PMID 39456954; conditions: PPE active site; cited from earlier work

Compound	%I @50 μM [1] [%]	RM (relative lipophilicity) [2]	mode of inhibition (Lineweaver–Burk plot) [1]	IC50 [1] [µM]	Ki [1] [µM]	mode of inhibition [3]
Cc1cc(C)cc(Cn2c(SCC(=O)Nc3ccc(S(N)(=O)=O)cc3Cl)nc3ccccc32)c1 [Compound 5, N‐(2‐Chloro‐4‐sulfamoylphenyl)‐2‐(1‐(3,5‐dimethylbenzyl)‐1‐benzo[d]imidazol‐2‐ylthio)acetamide]	19.3 ± 0.9	0.558				
Cc1cc(C)cc(Cn2c(SCC(=O)Nc3ccccc3Cl)nc3ccccc32)c1 [Compound 2, N‐(2‐Chlorophenyl)‐2‐(1‐(3,5‐dimethylbenzyl)‐1H‐benzo[d]imidazol‐2‐ylthio)acetamide]	29.1 ± 2.3	0.971				
Cc1cc(C)cc(Cn2c(SCC(=O)Nc3ccc(C)cc3Cl)nc3ccccc32)c1 [Compound 1, N‐(2‐chloro‐4‐methylphenyl)‐2‐[[1‐[(3,5‐dimethylphenyl)methyl]‐1H‐benzimidazol‐2‐yl]thio]acetamide]	30.0 ± 2.1	1.023				reversible competitive inhibitor
Cc1cc(C)cc(Cn2c(SCC(=O)Nc3ccc(S(C)(=O)=O)cc3Cl)nc3ccccc32)c1 [Compound 4, N‐(2‐Chloro‐4‐(methylsulfonyl)phenyl)‐2‐(1‐(3,5‐dimethylbenzyl)‐1H‐benzo[d]imidazol‐2‐ylthio)acetamide]	17.3 ± 0.7	0.678				
Cc1cc(C)cc(Cn2c(SCC(=O)Nc3ccccc3Br)nc3ccccc32)c1 [Compound 3, N‐(2‐Bromophenyl)‐2‐(1‐(3,5‐dimethylbenzyl)‐1H‐benzo[d]imidazol‐2‐ylthio)acetamide]	26.5 ± 0.4	0.938				

Further lines, with some results ahead:

%I @50 μM [1] [%]	RM (relative lipophilicity) [2]	mode of inhibition (Lineweaver–Burk plot) [1]	IC50 [1] [µM]	Ki [1] [µM]	Compound	mode of inhibition [3]
40.6 ± 0.7	1.121				Cc1cc(C)cc(Cn2c(SCC(=O)Nc3ccc(C)cc3Cl)nc3ccc(Cl)cc32)c1 [Compound 8, 2‐(6‐chloro‐1‐(3,5‐dimethylbenzyl)‐1H‐benzo[d]imidazol‐2‐ylthio)‐N‐(2‐chloro‐4‐methylphenyl)acetamide]	
31.0 ± 0.6	1.023				Cc1cc(C)cc(Cn2c(SCC(=O)Nc3ccc(S(C)(=O)=O)cc3Cl)nc3ccc(Cl)cc32)c1 [Compound 9, 2‐(6‐Chloro‐1‐(3,5‐dimethylbenzyl)‐1H‐benzo[d]imidazol‐2‐ylthio)‐N‐(2‐chloro‐4‐(methylsulfonyl)phenyl)acetamide]	
57.4 ± 2.6	1.221	competitive	44.8 ± 1.4	25.8	Cc1cc(C)cc(Cn2c(SCC(=O)Nc3ccccc3Cl)nc3ccc(Cl)cc32)c1 [Compound 6, 2‐(6‐Chloro‐1‐(3,5‐dimethylbenzyl)‐1H‐benzo[d]imidazol‐2‐ylthio)‐N‐(2‐chlorophenyl)acetamide]	
62.2 ± 2.1	1.195	competitive	41.1 ± 1.9	21	Cc1cc(C)cc(Cn2c(SCC(=O)Nc3ccccc3Br)nc3ccc(Cl)cc32)c1 [Compound 7, N‐(2‐Bromophenyl)‐2‐(6‐chloro‐1‐(3,5‐dimethylbenzyl)‐1H‐benzo[d]imidazol‐2‐ylthio)acetamide]	
